Experimental data reported in patent publication US8268962B2, “Molecules for targeting compounds to various selected organs or tissues” (Prosensa Technologies B.V., priority 2007, dated 2012).
Where no end group is shown, it is not given here.

Columns and labels:
mdx mouse = assay: In vivo targeting after subcutaneous injection of Cy5-labeled peptide (fluorescence imaging); settings: 71 nmol subcutaneously on the back, 48 hours
Description: Peptide LGAQSNF was synthesized with the fluorescent label Cy5. This label can be detected with a high sensitivity by a fluorescence imaging system (NightOWL, Berthold Technologies) after systemic (intravenous or subcutaneous) injection into a mouse. This enables monitoring of the distribution across the different organs of a living mouse after injection of the compound. Of this peptide, 71 nmol was injected subcutaneously on the back of an mdx mouse and after 48 hours a picture was taken with the imaging system.
The mouse is lying on its back, and the back paws and an area on the abdomen were first shaved because the hairs on the skin impair detection of the signal. A clear signal could be detected in the back and front paws and in the tail. The signal in the shaved area on the abdomen is likely from abdominal muscle.

[1] = tested on: gastrocnemius (calf muscle) of mdx mice; settings: intramuscular, 2.5-5 nmol, cross-sections after three days
Description: FAM-labeled peptides QLFTSAS (SEQ ID NO.: 3) (5 nmol injected), LYQDYSL (SEQ ID NO.: 85) (2.5 nmol injected) and LGAQSNF (SEQ ID NO.: 100) (2.5 nmol injected) were analysed. After three days the mice were sacrificed and the muscles were snap frozen. Cross-sections were cut, fixed with acetone and mounted for analysis with a fluorescence microscope. Cross-sections were cut and photographed with a fluorescence microscope (CCD camera).

[2] = tested on: gastrocnemius muscle of a healthy mouse; settings: intramuscular, 5 nmol, after 3 days
Description: Uptake of the FAM-labeled peptides QLFTSAS (SEQ ID NO.: 3) and LGAQSNF (SEQ ID NO.: 100) was also tested on the muscle of a healthy mouse. Of each peptide 5 nmol was injected into the gastrocnemius muscle. After 3 days the mice were sacrified and the amount of staining was assessed. Samples were photographed with an inverted fluorescence microscope.

[3] = tested on: myotubes obtained from human KM109 myoblast cultures; assay: Uptake of FAM-labeled peptides and conjugate into cultured myotubes (fluorescence microscopy); format: cell-based; settings: tested on human and mouse myotubes, no fixation
Description: Two of the peptides that occurred frequently after selection on both mouse and human myotubes, SPNSIGT and QLFTSAS, were synthesized with a fluorescent label (FAM) and tested for uptake into human and mouse differentiated muscle cells (myotubes). Myotubes were obtained from confluent human KM109 myoblast cultures by 7-14 days of serum deprivation. The culture was subsequently incubated with FAM-labeled peptide and photographed with an inverted fluorescence microscope, without previous fixation.
Peptide QLFTSAS was synthesized with a fluorescent label (FAM) and subsequently conjugated to a 21-mer 2′O-methyl phosphorothioate anti-sense oligonucleotide (AON). Myotubes were obtained from confluent human KM109 myoblast cultures by 7-14 days of serum deprivation. The culture was subsequently incubated with the FAM-labeled conjugate and photographed with an inverted fluorescence microscope, without previous fixation.
Three of the peptides that were found after four rounds of in vivo selection, were synthesized with a fluorescent label (FAM) and tested in cell culture for uptake on human myotubes as described in Example 1.

Substance | distribution of Cy5-labeled peptide (mdx mouse) | uptake of FAM-labeled peptide into muscle fibers [1] | uptake of FAM-labeled peptide into myofibers of the injected muscle [2] | uptake of FAM-labeled peptide into cultured myotubes [3]
Cy5-labeled peptide LGAQSNF: Peptide LGAQSNF synthesized with the fluorescent label Cy5 (also: Cy5 label) | taken up by the abdominal muscle and by muscles in the hindlegs, paws and tail | – | – | –
LGAQSNF | – | taken up into a large area of muscle fibers and were still visible after 3 days | significant area of uptake | –
LYQDYSL | – | taken up into a large area of muscle fibers and were still visible after 3 days | – | –
QLFTSAS (also: FAM label) | – | taken up into a large area of muscle fibers and were still visible after 3 days | significant area of uptake | significant uptake
SPNSIGT (also: FAM label) [7-mer peptide from in vitro phage selection on myotubes; tested with FAM label] | – | – | – | significant uptake
